From article PMC8955975, “Pyrazolo[4,3-c]pyridine Sulfonamides as Carbonic Anhydrase Inhibitors: Synthesis, Biological and In Silico Studies” (Pharmaceuticals, 2022) come the findings set out here.

Data set [1] deals with γ-CA from E. coli (Escherichia coli, UniProt P0A9W9). It counts as biochemical. Conditions: for Ki: stopped-flow CO2 hydrase assay, mean from 3 different assays; for selectivity index (SI) against BpsCAβ: E. coli γ versus BpsCAβ; for selectivity index (SI) against BpsCAγ: E. coli γ versus BpsCAγ; for selectivity index (SI) against E. coli β: E. coli γ versus E. coli β; for selectivity index (SI) against PgiCAγ: E. coli γ versus PgiCAγ.

For data set [2], the target named is β-CA from Burkholderia pseudomallei (BpsCAβ) (Burkholderia pseudomallei, UniProt Q63Y17). It counts as biochemical. Conditions: for Ki: read-out: KI BpsCAβ.
Data set [3] has as its target hCA IX (Homo sapiens, UniProt Q16790). The data set can be described thus: stopped-flow CO2 hydrase assay, hCA IX. It is filed as biochemical. Conditions: for selectivity index (SI) for hCA I: hCA IX inhibitor, hCA IX versus hCA I; for Ki: stopped-flow CO2 hydrase assay, mean from 3 different assays.
Data set [4] has as its target hCA II (Homo sapiens, UniProt P00918). The data set can be described thus: stopped-flow CO2 hydrase assay, hCA II. It counts as biochemical. Conditions: for Ki: stopped-flow CO2 hydrase assay, mean from 3 different assays, read-out: KI hCAII; for selectivity index (SI) toward hCA I / selectivity index (SI) towards hCA IX / selectivity index (SI) towards hCA XII: hCA II inhibitor; for selectivity index (SI) toward hCA I: hCA II versus hCA I; for selectivity index (SI) towards hCA IX: hCA II versus hCA IX; for selectivity index (SI) towards hCA XII: hCA II versus hCA XII.

Data set [5] deals with hCA I (Homo sapiens, UniProt P00915). The data set can be described thus: stopped-flow CO2 hydrase assay, hCA I. Conditions: for Ki: stopped-flow CO2 hydrase assay, mean from 3 different assays. It counts as biochemical.
For data set [6], the target named is β-CA from E. coli (Escherichia coli, UniProt P61517). The experiment in a line: stopped-flow CO2 hydrase assay, E. coli β-CA. It is filed as biochemical.
The target of data set [7] is β-CA from Vibrio cholerae (VhCAβ) (Vibrio cholerae, UniProt A0A086SLX8). The experiment in a line: biochemical.
For data set [8], the target named is hCA XII (Homo sapiens, UniProt O43570). The experiment in a line: stopped-flow CO2 hydrase assay, hCA XII. It counts as biochemical. To be noted: for Ki: stopped-flow CO2 hydrase assay, mean from 3 different assays.
The target of data set [9] is γ-CA from Porphyromonas gingivalis (PgiCAγ) (Porphyromonas gingivalis, UniProt Q7MV79). It is filed as biochemical. Conditions: for Ki: stopped-flow CO2 hydrase assay, mean from 3 different assays.
For data set [10], the target named is BpsCAγ (Burkholderia pseudomallei, UniProt Q63SQ4). It is filed as biochemical. To be noted: read-out: KI BpsCAγ.

Molecules are shown by their SMILES. Several values for one entry are separate records, joined by “and”; a condition that tells them apart may be missing. Identical values can stand only once.

Sequence of BpsCAγ (Q63SQ4 1-174): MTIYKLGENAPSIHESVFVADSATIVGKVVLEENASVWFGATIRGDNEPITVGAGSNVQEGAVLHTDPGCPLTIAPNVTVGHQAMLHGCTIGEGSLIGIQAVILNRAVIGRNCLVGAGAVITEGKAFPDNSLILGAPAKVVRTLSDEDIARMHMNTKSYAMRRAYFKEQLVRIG
Sequence of β-CA from E. coli (P61517 whole entry): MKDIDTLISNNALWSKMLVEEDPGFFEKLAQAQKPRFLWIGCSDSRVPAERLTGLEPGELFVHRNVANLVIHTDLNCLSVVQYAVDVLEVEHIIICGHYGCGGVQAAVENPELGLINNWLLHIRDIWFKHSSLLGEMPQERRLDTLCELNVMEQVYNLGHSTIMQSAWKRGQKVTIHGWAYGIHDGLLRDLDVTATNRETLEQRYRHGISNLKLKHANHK
Sequence of hCA I (P00915 whole entry): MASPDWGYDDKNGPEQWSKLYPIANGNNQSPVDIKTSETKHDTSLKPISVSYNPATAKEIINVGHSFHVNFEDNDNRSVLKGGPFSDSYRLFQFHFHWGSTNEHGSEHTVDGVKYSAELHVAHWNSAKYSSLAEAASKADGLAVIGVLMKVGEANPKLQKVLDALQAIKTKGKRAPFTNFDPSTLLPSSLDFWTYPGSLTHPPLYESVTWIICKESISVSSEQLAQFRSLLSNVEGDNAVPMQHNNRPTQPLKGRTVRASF
Sequence of γ-CA from Porphyromonas gingivalis (PgiCAγ) (Q7MV79 entry or part of it): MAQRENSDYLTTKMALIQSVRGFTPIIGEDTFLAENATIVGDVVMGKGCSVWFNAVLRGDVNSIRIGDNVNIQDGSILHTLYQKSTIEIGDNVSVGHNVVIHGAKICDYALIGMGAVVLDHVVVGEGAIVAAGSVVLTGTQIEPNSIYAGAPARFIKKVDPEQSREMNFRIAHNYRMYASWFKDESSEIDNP
Sequence of β-CA from Burkholderia pseudomallei (BpsCAβ) (Q63Y17 1-256): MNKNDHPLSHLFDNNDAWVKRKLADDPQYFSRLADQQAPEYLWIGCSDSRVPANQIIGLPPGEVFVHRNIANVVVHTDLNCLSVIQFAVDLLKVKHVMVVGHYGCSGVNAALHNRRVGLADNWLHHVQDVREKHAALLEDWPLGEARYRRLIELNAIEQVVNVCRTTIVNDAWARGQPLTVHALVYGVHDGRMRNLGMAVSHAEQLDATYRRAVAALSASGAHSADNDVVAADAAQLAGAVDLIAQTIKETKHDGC
Sequence of γ-CA from E. coli (P0A9W9 whole entry): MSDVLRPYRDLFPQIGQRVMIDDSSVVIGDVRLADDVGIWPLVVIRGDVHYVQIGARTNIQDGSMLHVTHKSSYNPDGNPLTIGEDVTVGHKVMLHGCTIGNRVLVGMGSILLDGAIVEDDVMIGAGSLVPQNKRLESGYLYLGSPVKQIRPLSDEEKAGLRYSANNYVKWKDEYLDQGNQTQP
Sequence of hCA XII (O43570 25-354): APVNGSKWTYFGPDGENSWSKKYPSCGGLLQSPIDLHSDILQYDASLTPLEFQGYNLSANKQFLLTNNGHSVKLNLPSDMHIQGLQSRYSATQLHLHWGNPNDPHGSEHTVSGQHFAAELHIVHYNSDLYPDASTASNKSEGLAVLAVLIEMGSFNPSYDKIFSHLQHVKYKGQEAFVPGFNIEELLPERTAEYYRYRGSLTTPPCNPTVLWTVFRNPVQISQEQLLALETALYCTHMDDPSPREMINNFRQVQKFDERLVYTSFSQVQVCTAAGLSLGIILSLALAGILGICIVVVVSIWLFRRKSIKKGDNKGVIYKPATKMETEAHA
Sequence of β-CA from Vibrio cholerae (VhCAβ) (A0A086SLX8 entry or part of it): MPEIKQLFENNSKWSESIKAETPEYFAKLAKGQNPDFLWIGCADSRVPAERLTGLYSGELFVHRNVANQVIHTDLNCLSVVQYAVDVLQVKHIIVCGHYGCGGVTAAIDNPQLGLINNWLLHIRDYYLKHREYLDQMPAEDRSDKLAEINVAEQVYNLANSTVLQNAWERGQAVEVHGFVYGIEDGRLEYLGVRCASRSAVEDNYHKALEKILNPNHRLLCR

Regarding `COC(=O)c1cn(CCS(N)(=O)=O)cc2c(=O)[nH]nc1-2` [Compound 1a, Methyl 3-oxo-5-(2-sulfamoylethyl)-3,5-dihydro-2H-pyrazolo[4,3-c]pyridine-7-carboxylate], the melting point was over 300 °C. In data set [1], this compound returned a Ki of 61.8 nM. Also, in data set [2], the inhibition constant Ki worked out at 654 nM. In addition, in data set [3], the “selectivity index (SI) for hCA I” value came out at 81.8 and the Ki was 97.9 nM. The Ki in data set [4] was found to be 7330 nM. This compound yielded a Ki in data set [5] of 8010 nM. In addition, the Ki in [6] is 862 nM. The compound further displayed a Ki in data set [7] of 2330 nM. The compound also returned a Ki in data set [8] of 282 nM. Also, the affinity in [9] corresponds to a Ki of 783 nM. Moreover, in [10], the Ki is 913 nM.
In turn, `COC(=O)c1cn(-c2ccc(S(N)(=O)=O)cc2)cc2c(=O)[nH]nc1-2` [Compound 1b, Methyl 3-oxo-5-(4-sulfamoylphenyl)-3,5-dihydro-2H-pyrazolo[4,3-c]pyridine-7-carboxylate] came in with a melting point of over 300 °C. Also, in [1] (E. coli γ-CA inhibitor), the “selectivity index (SI) against BpsCAβ” value was 3.96; the “selectivity index (SI) against BpsCAγ” value was 8.88; the “selectivity index (SI) against E. coli β” value is given as 59.8; the “selectivity index (SI) against PgiCAγ” value was 1.59 and 1.57 and 1.5. Further, the “selectivity index (SI) against VhCAβ” value in data set [1] (E. coli γ-CA inhibitor, E. coli γ versus VhCAβ) is 14.6. The compound further yielded a Ki in [1] of 57.8 nM. Moreover, the Ki in data set [2] turned out to be 229 nM. This compound came in with a Ki in data set [3] of 319 nM. Further, the Ki in [4] turned out to be 51.4 nM. For the same compound, the “decreased activity against hCA I” value in [5] (compared with 1f) is recorded as ~ 2.7 times. This compound also had a Ki in [5] of 157 nM. Also, the Ki in [6] worked out at 3460 nM. This compound also yielded a Ki in data set [7] of 844 nM. The same compound registered a Ki in data set [8] of 358 nM. The same compound had a Ki in [9] of 91 nM. Besides, the Ki in data set [10] came out at 513 nM.
In turn, `COC(=O)c1cn(-c2cccc(S(N)(=O)=O)c2)cc2c(=O)[nH]nc1-2` [Compound 1c, Methyl 3-oxo-5-(3-sulfamoylphenyl)-3,5-dihydro-2H-pyrazolo[4,3-c]pyridine-7-carboxylate] had a melting point of over 300 °C. The same compound came in with a Ki in [1] of 79.1 nM. Besides, in [2], the inhibition constant (Ki) came out at 785 nM. Also, the affinity in data set [3], expressed as Ki, was 590 nM. The Ki in data set [4] turned out to be 247 nM. Besides, affinity in data set [5] was put at a Ki of 1440 nM. The compound further showed a Ki in [6] of 3840 nM. This compound came in with a Ki in data set [7] of 913 nM. For the same compound, the Ki in [8] was 143 nM. Besides, the Ki in data set [9] is 637 nM. In addition, the Ki in data set [10] came to 614 nM.
For `COC(=O)C1=CN(Cc2ccc(S(N)(=O)=O)cc2)C=C2C(=O)N=NC21` (stereo not drawn) [Compound 1d, 3-oxo-5-(4-sulfamoylbenzyl)-3,5-dihydro-2H-pyrazolo[4,3-c]pyridine-7-carboxylate], the melting point was over 300 °C.
`COC(=O)c1cn(CCc2ccc(S(N)(=O)=O)cc2)cc2c(=O)[nH]nc1-2` [Compound 1e, Methyl 3-oxo-5-(4-sulfamoylphenethyl)-3,5-dihydro-2H-pyrazolo[4,3-c]pyridine-7-carboxylate] displayed a melting point of over 300 °C. Besides, in data set [1] (E. coli γ-CA inhibitor), the “selectivity index (SI) against BpsCAβ” value stood at 3.96, the “selectivity index (SI) against BpsCAγ” value worked out at 8.88, the “selectivity index (SI) against E. coli β” value is recorded as 59.8 and the “selectivity index (SI) against PgiCAγ” value turned out to be 1.59. The compound further yielded an inhibitory constant (Ki) in data set [1] of 58.1 nM. For the same compound, in data set [2], the Ki was found to be 683 nM. Also, in data set [3], the affinity corresponds to a Ki of 849 nM. Besides, the inhibition constant (Ki) in data set [4] worked out at 658 nM. In data set [5], this compound returned a Ki of 864 nM. In [6], this compound came in with an inhibitory constant (Ki) of 3140 nM. The Ki in data set [7] came out at 840 nM. In [8], the inhibitory constant (Ki) is 397 nM. Further, in data set [9], the affinity corresponds to a Ki of 96.1 nM. Also, the Ki in data set [10] is 1340 nM.
`COC(=O)c1cn(CC(=O)Nc2ccc(S(N)(=O)=O)cc2)cc2c(=O)[nH]nc1-2` [Compound 1f]: the melting point was over 300 °C. The same compound yielded a Ki in [1] of 66.8 nM. For the same compound, the inhibitory constant (Ki) in [2] was 236 nM. In addition, the Ki in data set [3] was 907 nM. Also, in [4], the “selectivity index (SI) toward hCA I” value is on record as 9, the “selectivity index (SI) towards hCA IX” value was determined as 137.5, the “selectivity index (SI) towards hCA XII” value worked out at 71.9 and the Ki amounted to 6.6 nM. This compound returned a Ki in [5] of 58.8 nM. The compound further came in with a Ki in data set [6] of 3650 nM. In data set [7], the Ki turned out to be 467 nM. The compound also came in with a Ki in data set [8] of 475 nM. For the same compound, the Ki in [9] was 668 nM. The Ki in data set [10] worked out at 2180 nM.
Consider `CC(=O)N1CC(Nc2ccc(S(N)(=O)=O)cc2)=CC1=O` [Compound 1g, 4-((1-Acetyl-5-oxo-2,5-dihydro-1H-pyrrol-3-yl)amino)benzenesulfonamide], for which the melting point was in the range of 285 to 287 °C. In data set [1], this compound showed a Ki of 205 nM. Besides, the inhibition constant Ki in [2] was found to be 664 nM. The compound further showed a Ki in data set [3] of 294 nM. In addition, the inhibition constant Ki in data set [4] worked out at 41.7 nM. Also, the Ki in [5] amounted to 66.8 nM. For the same compound, the Ki in data set [6] was determined as 454 nM. The affinity in data set [7] corresponds to a Ki of 1450 nM. Further, the Ki in data set [8] is 509 nM. In data set [9] (PgiCAγ inhibitor, PgiCAγ versus VhCAβ), the “selectivity index (SI) towards VhCAβ” value came to 17.4. This compound had a Ki in [9] of 83.1 nM. The Ki in data set [10] was determined as 97.1 nM.
Regarding `CC(=O)N1CC(Nc2cccc(S(N)(=O)=O)c2)=CC1=O` [Compound 1h, 3-((1-Acetyl-5-oxo-2,5-dihydro-1H-pyrrol-3-yl)amino)benzenesulfonamide], the Ki in [1] was 524 nM; in data set [2] it was 2960 nM; in [3], 94.3 nM; in data set [4], 61.7 nM; in data set [5] it was 136 nM; in data set [6], 712 nM. For the same compound, the Ki in data set [7] stood at 2620 nM; in [8] it was 714 nM; in data set [9], 90 nM; in data set [10] it was 833 nM.
As to `Cc1cc(O)cc(=O)n1CCS(N)(=O)=O` [Compound 1i, 2-(4-hydroxy-6-methyl-2-oxopyridin-1(2H)-yl)ethane-1-sulfonamide], the melting point was 243 to 245 °C. The same compound came in with a Ki in data set [1] of 92.7 nM. Also, in data set [2], the “selectivity index (SI) against VhCAβ” value turned out to be 23.2, the “selectivity index (SI) against the β-CA from E. coli” value is listed as 31.6 and the Ki was found to be 96.4 nM. In addition, in data set [3], the “selectivity index (SI) for hCA I” value is given as 74.9 and the affinity, expressed as Ki, was 79.6 nM. Besides, the Ki in data set [4] amounted to 6790 nM. Further, the Ki in [5] was determined as 5440 nM. Moreover, affinity in data set [6] was put at a Ki of 3050 nM. The compound also displayed a Ki in data set [7] of 2240 nM. In data set [8], this compound showed a Ki of 105 nM. In data set [9], this compound showed a Ki of 95.6 nM. Besides, the Ki in [10] stood at 192 nM.
For the compound `NS(=O)(=O)CCNC=C1C(=O)Oc2ccccc2C1=O` [Compound 1j, 2-(((2,4-dioxochroman-3-ylidene)methyl)amino)ethane-1-sulfonamide], the melting point was 197 to 199 °C. For the same compound, the affinity in data set [1] corresponds to a Ki of 67.1 nM. Further, in data set [2], the Ki was 789 nM. This compound registered a Ki in data set [3] of 97.8 nM. Moreover, the Ki in data set [4] was 5710 nM. For the same compound, affinity in data set [5] was put at a Ki of 3860 nM. The compound also gave a Ki in [6] of 94.9 nM. This compound also gave a Ki in data set [7] of 642 nM. In data set [8], affinity was put at a Ki of 285 nM. Further, the Ki in [9] was 84.3 nM. Moreover, the Ki in [10] turned out to be 625 nM.
`CC12CC(c3ccccc3O1)C(C(N)=O)C(=O)N2CCc1ccc(S(N)(=O)=O)cc1` (stereo not drawn) [Compound 1k, 2-methyl-4-oxo-3-(4-sulfamoylphenethyl)-3,4,5,6-tetrahydro-2H-2,6-methanobenzo[g][1,3]oxazocine-5-carboxamide] had a melting point of 225 to 227 °C. The compound further returned a Ki in data set [1] of 63.5 nM. Moreover, the inhibition constant (Ki) in data set [2] was determined as 212 nM. Moreover, the Ki in data set [3] was determined as 421 nM. In [4], the “selectivity index (SI) toward hCA I” value came out at 15.8, the “selectivity index (SI) towards hCA IX” value is 75.25, the “selectivity index (SI) towards hCA XII” value is 6 and the Ki is 5.6 nM. In addition, the Ki in [5] came out at 88.3 nM. The compound further showed a Ki in data set [6] of 3860 nM. The compound further yielded a Ki in [7] of 356 nM. Further, in [8] (hCA XII inhibitor, hCA XII versus hCA IX), the “selectivity index (SI) towards hCA IX” value came out at 12.2. In data set [8], the affinity corresponds to a Ki of 34.5 nM. The same compound showed a Ki in data set [9] of 202 nM. For the same compound, in data set [10], the Ki stood at 952 nM.

A word on the Ki: it is the dissociation constant of the complex between target and ligand, obtained from inhibition or displacement. The term melting point denotes the temperature, or range, at which the solid turns liquid.
